Test results taken from patent US11072633B2 (priority 2016, dated 2021).
In brackets after ≈: the same amount, converted by molar mass. Several values for one entry are separate records, joined by “and”; a condition that tells them apart may be missing. Equal entries are not always repeated. Where two headings read alike, the source gives them in different places.

Key:
M. tuberculosis H37Rv = type: cell-based
[1] = test system: INH-R1 (derived from H37Rv, katG mutant Y155*); type: cell-based, M. tuberculosis
[2] = test system: RIF-R1 (derived from H37Rv, rpoB mutant S522L); type: cell-based, M. tuberculosis
[3] = test system: FQ-R1 (fluoroquinolone-resistant strain derived from H37Rv, gyrA mutant D94N); type: cell-based, M. tuberculosis

CCCN1CC2C(CC[C@@]3(C)C2CC[C@@H]3C(=O)Nc2cc(C(C)(C)C)ccc2C(C)(C)C)[C@@]2(C)CCC(=O)C=C12 (some centres unmarked) [Compound 114]
Frequencies of resistance (M. tuberculosis H37Rv; 114 5 × MIC with BDQ 5 × MIC): 2 × 10^−7 | Frequencies of resistance (M. tuberculosis H37Rv; 114 5 × MIC, BDQ none): 3.6 × 10^−6 | Frequencies of resistance (M. tuberculosis H37Rv; 114 10 × MIC with BDQ 10 × MIC): 7.8 × 10^−8 | Frequencies of resistance (M. tuberculosis H37Rv; 114 10 × MIC, BDQ none): 1.1 × 10^−7

NNC(=O)c1ccncc1 [INH, isoniazid]
MIC INH-R1 [1]: >200 µM | MIC RIF-R1 [2]: 0.20 µM (≈ 0.0274 µg/mL) | MIC FQ-R1 [3]: 0.29 µM (≈ 0.0398 µg/mL)

COc1nc2ccc(Br)cc2cc1[C@@H](c1ccccc1)[C@@](O)(CCN(C)C)c1cccc2ccccc12 [BDQ, bedaquiline, reference compound]
Frequencies of resistance (M. tuberculosis H37Rv): 5.5 × 10^−9 and 3.4 × 10^−7
